Results on four compounds are retold here after US10314920B2, “Therapeutic dendrimers” (ASTRAZENECA AB, priority 2017, dated 2019).

≈ marks a conversion by molar mass, not a printed value. Where “and” joins values, the source holds several entries; their conditions need not be identical. Identical values can stand only once. Entries after “also recorded” stand apart in the source; their conditions may differ. Bounds are passed on as bounds.

The test system of series [1] is NCI-H1048 tumor cells. In words: In vivo anti-tumor activity in human small cell lung cancer tumor model (NCI-H1048). On the set-up: species or system mouse. The note with it: 15 mg/kg daily (qd), oral. Here is the method: AZD2014 was formulated in 0.5% hydroxypropyl methylcellulose/0.1% Tween 80 and dosed oral in a volume of 10 ml/kg 5×10^6 NCI-H1048 tumor cells were injected subcutaneously in the right flank of C.B.-17 SCID female mice in a volume of 0.1 mL containing 50% matrigel. Tumor volume (measured by caliper) was calculated using the formula:length (mm)×width (mm)^2×0.52. For efficacy studies, mice were randomized based on tumor volume and growth inhibition was assessed by comparison of the differences in tumor volume between control and treated groups. Dosing began when mean tumor volume reached approximately 124 mm^3.

Series [2] in a line: Solubility of Compound A (Form B), shake flask method. It is filed as physicochemical. The note with it: thermodynamic from solid, crystalline Form B, room temperature 24 hours. Here is the method:
The solubility of Compound A (Form B) was determined in water and propylene glycol. […] The solutions were centrifuged using ultra centrifuge for 30 min at 40,000 rpm, supernatant were transferred to a new centrifuge tube and centrifuged for another 30 min at 40,000 rpm. The propylene glycol supernatant was then assayed using a UV-HPLC method. The water supernatant was ultra-centrifuged for a third time before assay.

The nature of series [3]: Log D, octanol/water shake-flask. It is filed as physicochemical. Particulars: octanol / 10 mM sodium phosphate buffer pH 7.4. Here is the method: Lipophilicity (Log D) of Compound A was measured using octanol/water shake-flask principles. The aqueous solution used was a 10 mM sodium phosphate buffer with pH adjusted to 7.4. Octanol was used as the organic partitioning layer.

A short description of series [4]: Plasma protein binding, Equilibrium Dialysis RED device, mouse plasma. It is filed as in vitro ADME. The note with it: male, CD-1, pooled frozen plasma, 30 hours at 37° C., read-out: percentage unbound. On the procedure:
(§1) Protein binding of Compound A (prepared as DMSO stock solutions and spiked into plasma at nominal incubation concentrations of 0.1, 1, 10 and 100 μmol/L) was evaluated in pooled frozen plasma obtained from male CD-1 mice, male Han Wistar rats, female New Zealand White rabbits, male Beagle dogs and male humans in triplicate using Equilibrium Dialysis RED device methodology (Waters N J et al., Validation of a Rapid Equilibrium Dialysis Approach for the Measurement of Plasma Protein Binding, Journal of Pharmaceutical Sciences; 2008; Volume 97; Issue 10; Pages 4586-4595, 2008). Incubations were conducted over an equilibration time of 30 hours at 37° C. Sample analysis was by HPLC-MS/MS and employed an [^13C, ^2H7] Compound A internal standard using the following bioanalytical method: […]
For orientation: Equilibrium dialysis compares concentrations on both sides of a semipermeable membrane.

Series [5] in a line: Plasma protein binding, Equilibrium Dialysis RED device, rat plasma. It is filed as in vitro ADME. The note with it: male, Han Wistar, pooled frozen plasma, 30 hours at 37° C., read-out: percentage unbound. On the procedure: as §1
The nature of series [6]: Plasma protein binding, Equilibrium Dialysis RED device, rabbit plasma. The series is classed as in vitro ADME. The note with it: female, New Zealand White, pooled frozen plasma, 30 hours at 37° C., read-out: percentage unbound. Here is the method:
as §1

Series [7] can be described thus: Plasma protein binding, Equilibrium Dialysis RED device, dog plasma. It is filed as in vitro ADME. Particulars: male, Beagle, pooled frozen plasma, 30 hours at 37° C., read-out: percentage unbound. On the procedure: as §1
Series [8] in a line: Plasma protein binding, Equilibrium Dialysis RED device, human plasma. The series is classed as in vitro ADME. The note with it: male, pooled frozen plasma, 30 hours at 37° C., read-out: percentage unbound. Here is the method: as §1
Series [9] has as its system RS4;11 Acute Lymphoblastic Leukemia Xenograft. Nature of the series: Efficacy of Compound A (HP-β-CD) at different infusion length in RS4;11 xenograft model in rats. It is filed as in vivo, rat. Particulars: single IV 5 hr infusion, 30% HP-β-CD. On the procedure:
Rag2−/− rats purchased from (SAGE) were inoculated with RS4;1 (10×10^6 cells/rat). When tumors grew to approximately […], rats were randomized to vehicle control (30% HP-β-CD) or Compound A 5 mg/kg in Vehicle 1) delivered as a single IV 30 min infusion (FIG. 6) and Vehicle control (30% HP-β-CD) or Compound A 5 mg/kg, 3 mg/kg and 1 mg/kg in Vehicle 1 delivered as a single IV 5 hr infusion (FIG. 7). The tumor sizes were measured twice a week and calculated as: Tumor Volume=(A×B^2)/2 where A and B are the tumor length and width (in mm), respectively.

For series [10], the system named is RS4;11 cells. Nature of the series: Efficacy of dendrimers in RS4;11 xenograft model in mice. The series is classed as in vivo, mouse. On the procedure: 5×10^6 RS4;11 cells in a total volume of 100 μl were inoculated subcutaneously at the mouse right flank. When the tumor volume reached approximately ˜350 mm^3, tumor-bearing mice were randomized into groups of 4 animals and treated with either control Vehicle (PBS) or treatment.
(§2) On specific day, for each treated group, calculate Inhibition value by formula: Inhibition %=(CG−TG)*100/(CG−1), in which “CG” means the geometric mean of rtv of the control group and “TG” means the Geometric Mean of Relative Tumor Volume (rtv) of the treated group. “CG” should use the corresponding control group of the treated group when calculated. If Inhibition >100%, then it's necessary to calculate the Regression by formula: Regression=1−TG

Series [11] is described as follows: Cardiovascular telemetry studies in the rat. The note with it: Compound A 10 mg/kg, single 30-minute intravenous infusion.
Protocol: The telemetry transmitters were placed in the abdominal muscle and the arterial blood pressure catheter was placed in the abdominal aorta. The ECG electrodes were sutured to the dorsal surface of the xiphoid process and at the anterior mediastinum.
Compound A was administered at dose levels of 0 and 10 mg/kg.
Cardiovascular parameters were recorded continuously via receivers placed beneath the home cage for at least 1 hour pre-dose and up to 72 hours post-dose. Blood samples were taken to determine the level of plasma exposure of Compound A and all dendrimers, with clinical pathology and limited tissues for target organ histopathology taken from animals dosed with the macromolecule constructs only.
Series [12] deals with OCI-Ly10 tumor cells. Nature of the series: In vivo anti-tumor activity in human DLBCL model (OCI-Ly10). Particulars: single agent, 12.5 mg/kg twice a day oral. Details: species or system mouse. Here is the method:
5×10^6 OCI-Ly10 tumor cells were injected subcutaneously in the right flank of C.B.-17 SCID female mice in a volume of 0.1 mL containing 50% matrigel. Example 9 was formulated in citrate/phosphate buffer pH 5.0, diluted 1 to 10 with 5% glucose containing 1% w/v Kolliphor HS15, and dosed as a weekly intravenous (iv) administration at a volume of 5 mL/kg at a dose of 103 mg/kg (30 mg/kg API). Acalabrutinib was formulated in 0.5% hydroxypropyl methyl cellulose/0.2% Tween 80, and dosed twice a day (bid) as an oral (po) administration at a volume of 10 mL/kg at a dose of 12.5 mg/kg. Tumor volumes (measured by caliper), animal body weight, and tumor condition were recorded twice weekly for the duration of the study. The tumor volume was calculated using the formula:length (mm)×width (mm)^2×0.52. For efficacy studies, growth inhibition from the start of treatment was assessed by comparison of the differences in tumor volume between control and treated groups. Dosing began when mean tumor size reached approximately 166 mm3.

Series [13] deals with SuDHL-4 xenograft. Nature of the series: SuDHL-4 xenograft model in SCID mice, alone and with rituximab. It is filed as in vivo, mouse. On the procedure: The SuDHL-4 xenograft model was used to test the ability of Examples 6 and 9 to enhance the activity of rituximab in inhibiting tumor growth. When tumors grew to approximately 175-250 mm^3, mice were randomized to the following groups:
The tumor sizes were measured 2 times a week and calculated as: Tumor Volume=(A×B^2)/2 where A and B are the tumor length and width (in mm), respectively.
Table 17 summarizes the tumor growth inhibition (TIC) and tumor growth delay (T-C) values calculated as % Inhibition & % Regression. The calculation is based on the geometric mean of RTV in each group.
as §2

For orientation: TGI means how far tumour growth fell short of that in controls. Low values mean a weaker effect on the tumour, high ones a stronger effect on the tumour. The solubility is the concentration that dissolves in the medium under given conditions. One may read the logD as lipophilicity at a set pH, counting ionised and neutral species. High values mean higher lipophilicity, low ones lower lipophilicity.

Consider `CNC(=O)c1cccc(-c2ccc3c(N4CCOC[C@@H]4C)nc(N4CCOC[C@@H]4C)nc3n2)c1` [AZD2014, vistusertib, reference compound], for which the TGI in series [1] came to 84%.

For `CN(CCO)CC[C@H](CSc1ccccc1)Nc1ccc(S(=O)(=O)NC(=O)c2ccc(N3CCC([C@@H](O)c4ccccc4-c4ccc(Cl)cc4)CC3)cc2)cc1S(=O)(=O)C(F)(F)F` [Compound A, 4-(4-((R)-(4′-chlorobiphenyl-2-yl)(hydroxy)methyl)piperidin-1-yl)-N-(4-((R)-4-((2-hydroxyethyl)(methyl)amino)-1-(phenylthio)butan-2-ylamino)-3-(trifluoromethylsulfonyl)phenylsulfonyl)benzamide], the solubility at 24 h in series [2] (organic solvent or mixture, propylene glycol) was 6120 µg/mL (≈ 6.47 mM); in series [2] (water, final pH 8.7), < 1 µg/mL. In addition, in [3], the log distribution coefficient (logD) was > 3.5. The fraction unbound at 30 h, 100 μmol/L in series [4] was 2.35e-05; in series [5], < 1e-05; in [6], 1.53e-05; in [7], < 1e-05; in [8], 1.96e-05. Also, the “efficacy when the infusion was prolonged” value in series [9] is on record as “Comparable efficacy”. In [10] (Compound A 5 mg/kg), the “% Inhibition Day (47)” value is recorded as >100%. In addition, the “% Regression Day(47)” value in series [10] (Compound A 5 mg/kg) stood at 90%. Further, the regression in series [10] (Compound A HP-β-CD 10 mg/kg IV once) is given as 90%. The Cardiovascular entry in [11] was “biphasic decrease in systolic and mean arterial blood pressure; also recorded: increases in heart rate; also recorded: decrease in QRS amplitude”. For the same compound, in series [11], the In-life entry is “three rats were found dead and 3 found dead”.

`CC#CC(=O)N1CCC[C@H]1c1nc(-c2ccc(C(=O)Nc3ccccn3)cc2)c2c(N)nccn12` [acalabrutinib, reference compound]: the “tumor growth inhibition (TGI)” value in [12] is ~58%.

Take rituximab [reference compound]: the “T-C” value in series [13] (rituximab 10 mg/kg) is >16 days. Moreover, in series [13] (rituximab 10 mg/kg i.p. once a week for 5 weeks), the “% Inhibition (TIC) Day (41)” value amounted to 75.27%.
